Read-outs that look alike come from different tables or passages of the source. Marks after values point to notes of the source that are not given here.
Target: T1, human sweet taste receptor (hT1R2/hT1R3) coupled to Gα15 (Homo sapiens, UniProt Q7RTX0+Q8TE23)
T1 construct: expressed in transfected cells
T1 sequence (Q8TE23 20-839): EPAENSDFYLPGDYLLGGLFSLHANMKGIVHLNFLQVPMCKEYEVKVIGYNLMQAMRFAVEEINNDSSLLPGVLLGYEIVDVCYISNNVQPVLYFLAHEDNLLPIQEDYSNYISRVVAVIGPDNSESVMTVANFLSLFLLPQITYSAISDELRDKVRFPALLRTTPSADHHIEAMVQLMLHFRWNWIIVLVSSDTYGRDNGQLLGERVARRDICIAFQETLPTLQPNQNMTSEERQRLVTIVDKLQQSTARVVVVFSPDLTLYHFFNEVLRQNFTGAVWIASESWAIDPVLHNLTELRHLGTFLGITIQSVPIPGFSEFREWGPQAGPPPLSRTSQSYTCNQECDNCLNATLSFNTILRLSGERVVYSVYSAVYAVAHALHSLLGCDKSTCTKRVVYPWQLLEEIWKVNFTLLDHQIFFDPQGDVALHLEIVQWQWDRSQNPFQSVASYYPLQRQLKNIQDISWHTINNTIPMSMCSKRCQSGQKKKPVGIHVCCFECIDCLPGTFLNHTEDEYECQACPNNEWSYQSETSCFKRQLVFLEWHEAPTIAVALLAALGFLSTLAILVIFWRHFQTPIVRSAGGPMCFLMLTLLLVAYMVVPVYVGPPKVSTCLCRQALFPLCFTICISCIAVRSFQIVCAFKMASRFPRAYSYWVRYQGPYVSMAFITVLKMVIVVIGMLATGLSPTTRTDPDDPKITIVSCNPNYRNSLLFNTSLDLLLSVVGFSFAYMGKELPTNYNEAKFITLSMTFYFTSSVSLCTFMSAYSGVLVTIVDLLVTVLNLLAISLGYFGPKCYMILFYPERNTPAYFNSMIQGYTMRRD
T1 sequence (Q7RTX0 21-852): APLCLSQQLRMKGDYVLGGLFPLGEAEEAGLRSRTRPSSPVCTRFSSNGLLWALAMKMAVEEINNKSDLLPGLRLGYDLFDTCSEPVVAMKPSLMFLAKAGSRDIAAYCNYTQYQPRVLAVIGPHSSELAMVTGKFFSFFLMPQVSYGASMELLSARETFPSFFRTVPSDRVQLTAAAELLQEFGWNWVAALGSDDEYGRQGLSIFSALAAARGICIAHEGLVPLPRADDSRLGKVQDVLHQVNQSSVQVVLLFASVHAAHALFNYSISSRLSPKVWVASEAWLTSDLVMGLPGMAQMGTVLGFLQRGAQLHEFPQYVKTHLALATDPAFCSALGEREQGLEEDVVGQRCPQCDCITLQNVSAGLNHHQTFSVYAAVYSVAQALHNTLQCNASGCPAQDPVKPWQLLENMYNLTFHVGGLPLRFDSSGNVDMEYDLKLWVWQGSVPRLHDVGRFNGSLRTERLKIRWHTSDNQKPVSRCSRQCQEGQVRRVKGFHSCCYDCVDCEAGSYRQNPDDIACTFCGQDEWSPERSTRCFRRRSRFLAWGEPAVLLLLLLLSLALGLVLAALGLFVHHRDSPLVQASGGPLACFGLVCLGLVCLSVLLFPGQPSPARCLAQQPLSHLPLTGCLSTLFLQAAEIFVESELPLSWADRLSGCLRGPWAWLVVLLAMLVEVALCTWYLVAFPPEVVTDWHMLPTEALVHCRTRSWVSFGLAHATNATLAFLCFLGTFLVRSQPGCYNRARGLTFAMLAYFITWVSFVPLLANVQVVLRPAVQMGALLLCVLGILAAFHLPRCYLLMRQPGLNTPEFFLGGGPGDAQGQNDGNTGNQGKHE
Test: FLIPR calcium mobilization assay, R2/R3 U2OS cells transduced with Gα15 baculovirus
Format: cell-based
Conditions: for ΔlogR FLIPR Mean: FLIPR-Gα15, operational model, logR minus sucralose logR; for Activity in FLIPR assay Emax: Gα15, top asymptote of dose-response normalized to 1 mM sucralose; for EC50: R2/R3 U2OS cells expressing Gα15; for Bias factor: inverse log of ΔΔlogR, FLIPR-Gα15 vs DMR; for ΔΔlogR Mean: ΔlogR FLIPR-Gα15 minus ΔlogR DMR; for fold difference DMR EC50 vs FLIPR EC50 (more potent in FLIPR): DMR EC50 over FLIPR-Gα15 EC50

[1] = read-out: Activity in FLIPR assay EC50
[2] = read-out: Activity in FLIPR assay pEC50 (converted)

SMILES | ΔlogR FLIPR Mean | Activity in FLIPR assay Emax | EC50 [1] [nM] | EC50 [2] [nM] | Bias factor | ΔΔlogR Mean | fold difference DMR EC50 vs FLIPR EC50 (more potent in FLIPR)
COC(=O)[C@H](Cc1ccccc1)NC(=O)[C@H](CC(=O)O)NCCC(C)(C)C [Neotame] | 1.65 | 116**** | 1600 | 1530 | 3.2 | 0.50 | 
CC(C)Oc1ccc(NC(=S)NCc2cccs2)cc1 [S5227] | 2.52 | 177**** | 300 | 335 | 4.8 | 0.68 | about 10 times
CC(C)Oc1ccc(NC(=S)NCc2ccc[nH]2)cc1 [S819] | 3.11 | 181**** | 70 | 74.5 | 3.9 | 0.59 | about 10 times
